Test results reported in ChEMBL document CHEMBL3885861, “Open TG-GATES”.

Species on record: Rattus norvegicus
Experiment: Open TG-GATES - Regimen: Daily Repeat
Format: toxicity, organism-based, Sprague-Dawley
Set-up: regimen Daily Repeat, gender Male, age 6 weeks
Details: in vivo, po, 1000 mg/kg, route gavage, dose level Middle; for Bas / Eos / Hb / Ht / Lym / MCH / MCHC / MCV / Mono / Neu / Plat / RBC / Ret / WBC: tissue Blood; for KIDNEY_L / KIDNEY_R / KIDNEY_TOTAL: tissue Kidney; for LIVER: tissue Liver; for A/G / ALP / ALT / AST / BUN / CRE / Ca / Cl / DBIL / GLC / IP / K / LDH / Na / PL / RALB / TBIL / TC / TG / TP / gamma-GTP: tissue Plasma

## CC(N)=O [ACETAMIDE]
72 h, time 3 day
  TERMINAL_BW: 241.7 g
  Bas: 0%
  Eos: 0.6%
  Hb: 12.4 g/dL
  Ht: 38.2%
  Lym: 75.6%
  MCH: 20.1 pg
  MCHC: 32.4%
  MCV: 62 fL
  Mono: 3.8%
  Neu: 19%
  Plat: 119 x10_4/uL
  RBC: 617.4 x10_4/ul
  Ret: 7.8%
  WBC: 118.5 x10_2/uL
  KIDNEY_L: 1 g
  KIDNEY_R: 1 g
  KIDNEY_TOTAL: 2 g
  LIVER: 11.3 g
  A/G: 1
  ALP: 1645.6 IU/L
  ALT: 50.4 IU/L
  AST: 84 IU/L
  BUN: 17.2 mg/dL
  CRE: 0.1 mg/dL
  Ca: 10.9 mg/dL
  Cl: 104.4 meq/L
  DBIL: 0 mg/dL
  GLC: 186 mg/dL
  IP: 6.7 mg/dL
  K: 4.4 meq/L
  LDH: 228.8 IU/L
  Na: 140.3 meq/L
  PL: 161.8 mg/dL
  RALB: 2.8 g/dL
  TBIL: 0.004 mg/dL
  TC: 82.2 mg/dL
  TG: 130.3 mg/dL
  TP: 5.6 g/dL
  gamma-GTP: 0.9 IU/L
[…], time 7 day
  TERMINAL_BW: 269.7 g
  Bas: 0%
  Eos: 0.8%
  Hb: 13 g/dL
  Ht: 39.6%
  Lym: 79.2%
  MCH: 20 pg
  MCHC: 32.8%
  MCV: 60.8 fL
  Mono: 2.4%
  Neu: 17.2%
  Plat: 113.6 x10_4/uL
  RBC: 650.4 x10_4/ul
  Ret: 6.5%
  WBC: 128.6 x10_2/uL
  KIDNEY_L: 1.2 g
  KIDNEY_R: 1.2 g
  KIDNEY_TOTAL: 2.4 g
  LIVER: 11.7 g
  A/G: 1
  ALP: 2048.4 IU/L
  ALT: 47.4 IU/L
  AST: 87.2 IU/L
  BUN: 16 mg/dL
  CRE: 0.1 mg/dL
  Ca: 10.7 mg/dL
  Cl: 104.7 meq/L
  DBIL: 0 mg/dL
  GLC: 186.2 mg/dL
  IP: 6.4 mg/dL
  K: 4.2 meq/L
  LDH: 199 IU/L
  Na: 142.7 meq/L
  PL: 168 mg/dL
  RALB: 2.8 g/dL
  TBIL: 0 mg/dL
  TC: 83.6 mg/dL
  TG: 141.4 mg/dL
  TP: 5.7 g/dL
  gamma-GTP: 0.7 IU/L
[…], time 14 day
  TERMINAL_BW: 332.5 g
  Bas: 0%
  Eos: 1%
  Hb: 13.3 g/dL
  Ht: 39.8%
  Lym: 81%
  MCH: 19.7 pg
  MCHC: 33.4%
  MCV: 59.2 fL
  Mono: 2.8%
  Neu: 14.2%
  Plat: 118.6 x10_4/uL
  RBC: 672.6 x10_4/ul
  Ret: 4.8%
  WBC: 106.1 x10_2/uL
  KIDNEY_L: 1.3 g
  KIDNEY_R: 1.4 g
  KIDNEY_TOTAL: 2.7 g
  LIVER: 14 g
  A/G: 0.9
  ALP: 1740 IU/L
  ALT: 43.8 IU/L
  AST: 79.2 IU/L
  BUN: 18.4 mg/dL
  CRE: 0.2 mg/dL
  Ca: 10.5 mg/dL
  Cl: 104.6 meq/L
  DBIL: 0 mg/dL
  GLC: 180.8 mg/dL
  IP: 6.4 mg/dL
  K: 4.3 meq/L
  LDH: 285.4 IU/L
  Na: 142.1 meq/L
  PL: 153.6 mg/dL
  RALB: 2.8 g/dL
  TBIL: 0.002 mg/dL
  TC: 83 mg/dL
  TG: 135.3 mg/dL
  TP: 5.7 g/dL
  gamma-GTP: 0.7 IU/L
[…], time 28 day
  TERMINAL_BW: 409 g
  Bas: 0%
  Eos: 1%
  Hb: 14.5 g/dL
  Ht: 43.1%
  Lym: 81.6%
  MCH: 18.9 pg
  MCHC: 33.7%
  MCV: 56.2 fL
  Mono: 2.4%
  Neu: 14.4%
  Plat: 93.5 x10_4/uL
  RBC: 767.8 x10_4/ul
  Ret: 2.8%
  WBC: 140.9 x10_2/uL
  KIDNEY_L: 1.6 g
  KIDNEY_R: 1.6 g
  KIDNEY_TOTAL: 3.1 g
  LIVER: 15.5 g
  A/G: 0.9
  ALP: 1250.4 IU/L
  ALT: 48.6 IU/L
  AST: 81 IU/L
  BUN: 16.8 mg/dL
  CRE: 0.2 mg/dL
  Ca: 10.3 mg/dL
  Cl: 103.7 meq/L
  DBIL: 0.006 mg/dL
  GLC: 197.2 mg/dL
  IP: 5.2 mg/dL
  K: 4 meq/L
  LDH: 207 IU/L
  Na: 142 meq/L
  PL: 148.2 mg/dL
  RALB: 2.8 g/dL
  TBIL: 0.006 mg/dL
  TC: 75.2 mg/dL
  TG: 122 mg/dL
  TP: 6.1 g/dL
  gamma-GTP: 0.9 IU/L
